Our source for the Ki and IC50 values is patent US11130769B2 (Prelude Therapeutics Incorporated, priority 2018, dated 2021).

Each structure is given as a SMILES string. Like-named read-outs stand apart in the source and are kept apart here.

One test addresses MCL-1 (Homo sapiens (Human), UniProt Q07820). Briefly: Cell free Mcl-1:Bim affinity assay (fluorescence polarization competition). As to conditions: 15 nM MCL-1, 5 nM FITC-Bim, 1 hour at room temperature, read-out: BIM_Ki. The format is binding. As for the experimental part: The binding affinity of each compound was measured via a fluorescence polarization competition assay, in which the compound competes for the same binding site with the ligand, and thus leads to a dose-dependent anisotropy reduction. The tracer ligand utilized was a fluorescein isothiocyanate labelled peptide (FITC-[…]) derived from Bim (GenScript).
The assay was carried out in black half-area 96-well NBS plate (Corning), containing 15 nM of MCL-1 (BPS Bioscience), 5 nM of FITC-Bim and 3-fold serial diluted test compounds in a total volume of 50 μL of assay buffer (20 mM HEPES, 50 mM NaCl, 0.002% Tween 20, 1 mM TCEP, and 1% DMSO). The reaction plate was incubated for 1 hour at room temperature. The change of anisotropy is measured with an Envision multimode plate reader (PerkinElmer) at emission wavelength 535 nm. Fluorescence polarization was calculated in mP unit and the percentage inhibition was calculated by % inhibition=100×(mPDMSO−mP)/(mPDMSO−mPPC), in which mPDMSO is the DMSO control, and mPpc is the positive control. IC50 values were determined from a 10-point dose response curve by fitting the percent inhibition against compound concentration using the GraphPad Prism software. The inhibition constant Ki was subsequently calculated according to the Nikolovska-Coleska's equation (Anal. Biochem., 2004, 332, 261),
[formula] • where [I]50 is the concentration of the free inhibitor at 50% inhibition, [L]50 is the concentration of the free labeled ligand at 50% inhibition, [P]0 is the concentration of the free protein at 0% inhibition, and Kd is the dissociation constant of the protein-ligand complex. See Table F. Caspase 3/7 Activity Assay
For orientation: Polarisation of emitted light reports the rotation of a fluorescent probe.

In the next test the test system is H929 cells. Briefly: Cell viability assay (H929 10 FBS). It counts as cell-based. The note with it: Homo sapiens, NCI-H929, 24 hours, read-out: H929_10FBS IC50. Here is the method:
Cell Viability Assay (H929 10 FBS)
Dispense 10 μL aliquot of prepared H929 cells (1:1 ratio of cells:Trypan Blue (#1450013, Bio-Rad)) onto cell counting slide (#145-0011, Bio-Rad) and obtain cell density and cell viability using cell counter (TC20, Bio-Rad). Remove appropriate volume of resuspended cells from culture flask to accommodate 4000 cells/well @ 10 μL/well. Transfer H929 cells to 50 mL conical (#430290, Corning). Spin down at 1000 rpm for 5 min using tabletop centrifuge (SPINCHRON 15, Beckman). Discard supernatant and resuspend cell pellet in modified RPMI 1640 (#10-040-CV, Corning) cell culture media containing 10% FBS (F2422-500 ML, Sigma), sodium pyruvate (100 mM) (#25-000-CL, Corning), HEPES buffer (1 M) (#25-060-CL, Corning) and glucose (200 g/L) (A24940-01, Gibco) to a cell density of 400,000 cells/mL. Dispense 10 μL of resuspended H929 cells per well in 384-well small volume TC treated plate (#784080, Greiner Bio-one) using standard cassette (#50950372, Thermo Scientific) on Multi-drop Combi (#5840310, Thermo Scientific) in laminar flow cabinet. Dispense compounds onto plates using digital liquid dispenser (D300E, Tecan). Incubate plates in humidified tissue culture incubator @ 37° C. for 24 hours. Add 10 μL of prepared CellTiTer-Glo® detection buffer (G7570, Promega) or ATPlite 1 Step detection reagent (#6016731, Perkin Elmer) to each well of 384-well plate using small tube cassette (#24073295, Thermo Scientific) on Combi multi drop, incubate @ RT for 30-60 min. Read plates with microplate reader (PheraStar, BMG Labtech) using 384 well luminescence mode.

MCL-1, sequence (Q07820 whole entry): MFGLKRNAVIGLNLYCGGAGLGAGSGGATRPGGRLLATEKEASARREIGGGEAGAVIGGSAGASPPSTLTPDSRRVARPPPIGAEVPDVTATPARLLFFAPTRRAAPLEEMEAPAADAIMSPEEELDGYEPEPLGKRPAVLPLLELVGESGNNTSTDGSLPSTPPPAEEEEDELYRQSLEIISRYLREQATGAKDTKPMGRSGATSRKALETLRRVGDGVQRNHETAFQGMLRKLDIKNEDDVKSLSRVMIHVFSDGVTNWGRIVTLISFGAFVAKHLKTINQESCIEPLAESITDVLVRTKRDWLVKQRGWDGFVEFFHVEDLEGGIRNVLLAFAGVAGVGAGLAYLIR

Turning to `CC(=O)O[C@H]1/C=C/CO[C@@H](C)C(=O)NS(=O)(=O)c2ccc3c(c2)N(C[C@@H]2CC[C@H]21)C[C@@]1(CCCc2cc(Cl)ccc21)CO3` [Example 113, [(3R,6R,7S,8E,12S,22S)-6′-Chloro-12-methyl-13,15,15-trioxo-spiro[11,20-dioxa-15-thia-1,14-diazatetracyclo[14.7.2.03,6.019,24]pentacosa-8,16,18,24-tetraene-22,1′-tetralin]-7-yl] acetate], the Ki at MCL-1 (class symbols) was less than 1 nM. Besides, in the test on H929 cells, the IC50 is less than 1000 nM.

For `CO[C@@H]1/C=C/CN(C)C(C)(C)C(=O)NS(=O)(=O)c2ccc3c(c2)N(C[C@@H]2CC[C@H]21)C[C@@]1(CCCc2cc(Cl)ccc21)CO3` [Example 42, (3R,6R,7R,8E,22S)-6′-Chloro-7-methoxy-11,12,12-trimethyl-15,15-dioxo-spiro[20-oxa-15-thia-1,11,14-triazatetracyclo[14.7.2.03,6.019,24]pentacosa-8,16,18,24-tetraene-22,1′-tetralin]-13-one], the Ki at MCL-1 (class symbols) was 1 to 100 nM. The IC50 in the test with H929 cells is less than 500 nM.

With `CO[C@@H]1/C=C/CCN(C)C(=O)NS(=O)(=O)c2ccc3c(c2)N(C[C@@H]2CC[C@H]21)C[C@@]1(CCCc2cc(Cl)ccc21)CO3` [Example 107, (3R,6R,7R,8E,22S)-6′-Chloro-7-methoxy-12-methyl-15,15-dioxo-spiro[20-oxa-15-thia-1,12,14-triazatetracyclo[14.7.2.03,6.019,24]pentacosa-8,16,18,24-tetraene-22,1′-tetralin]-13-one], the Ki at MCL-1 (class symbols) fell in the range of 1 to 100 nM. In addition, in the test on H929 cells, the IC50 was less than 1000 nM.

As to `CO[C@H]1/C=C/COCC(=O)NS(=O)(=O)c2ccc3c(c2)N(C[C@@H]2CC[C@H]21)C[C@@]1(CCCc2cc(Cl)ccc21)CO3` [Example 111, (3R,6R,7S,8E,22S)-6′-Chloro-7-methoxy-15,15-dioxo-spiro[[11,20]dioxa[15]thia-1,14-diazatetracyclo[14.7.2.03,6.019,24]pentacosa[8,16(25),17,19(24)]tetraene-22,1′-tetralin]-13-one], the Ki on MCL-1 (class symbols) fell in the range of 1 to 100 nM. The IC50 with H929 cells is greater than 1000 nM.

`CON(C)C(=O)O[C@H]1/C=C/COC(C)(C)C(=O)NS(=O)(=O)c2ccc3c(c2)N(C[C@@H]2CC[C@H]21)C[C@@]1(CCCc2cc(Cl)ccc21)CO3` [Example 63, [(3R,6R,7S,8E,22S)-6′-Chloro-12,12-dimethyl-13,15,15-trioxo-spiro[11,20-dioxa-15-thia-1,14-diazatetracyclo[14.7.2.03,6.019,24]pentacosa-8,16,18,24-tetraene-22,1′-tetralin]-7-yl] N-methoxy-N-methyl-carbamate]: the Ki on MCL-1 (class symbols) was less than 1 nM. Further, in the test with H929 cells, the IC50 is less than 500 nM.

Regarding `CC(C)NC(=O)O[C@H]1/C=C/CN(C)C(C)(C)C(=O)NS(=O)(=O)c2ccc3c(c2)N(C[C@@H]2CC[C@H]21)C[C@@]1(CCCc2cc(Cl)ccc21)CO3` [Example 207, [(3R,6R,7S,8E,22S)-6′-Chloro-11,12,12-trimethyl-13,15,15-trioxo-spiro[20-oxa-15-thia-1,11,14-triazatetracyclo[14.7.2.03,6.019,24]pentacosa-8,16,18,24-tetraene-22,1′-tetralin]-7-yl] N-isopropylcarbamate], the Ki on MCL-1 (class symbols) was less than 1 nM. For the same compound, in the test on H929 cells, the IC50 is less than 500 nM.

As for `CN(C(=O)O[C@H]1/C=C/COC(C)(C)C(=O)NS(=O)(=O)c2ccc3c(c2)N(C[C@@H]2CC[C@H]21)C[C@]1(CO3)OCCc2cc(Cl)ccc21)[C@@H]1CCOC1` [Example 299, [(3R,6R,7S,8E,22R)-6′-Chloro-12,12-dimethyl-13,15,15-trioxo-spiro[11,20-dioxa-15-thia-1,14-diazatetracyclo[14.7.2.03,6.019,24]pentacosa-8,16,18,24-tetraene-22,1′-isochromane]-7-yl] N-methyl-N-[(3R)-tetrahydrofuran-3-yl]carbamate], the Ki at MCL-1 (class symbols) is less than 1 nM. In addition, the IC50 in the test on H929 cells was less than 1000 nM.

On to `CC1(C)OC/C=C/[C@H](O)[C@@H]2CC[C@H]2CN2C[C@@]3(CCOc4cc(Cl)ccc43)COc3ccc(cc32)S(=O)(=O)NC1=O` [Example 246, (3R,6R,7S,8E,22S)-7′-chloro-7-hydroxy-12,12-dimethyl-15,15-dioxo-spiro[11,20-dioxa-15-thia-1,14-diazatetracyclo[14.7.2.03,6.019,24]pentacosa-8,16,18,24-tetraene-22,4′-chromane]-13-one], for which the Ki on MCL-1 (class symbols) lay in the range of 1 to 100 nM. Besides, the IC50 in the test on H929 cells is greater than 1000 nM.

As to `C=CCCCC(=O)NS(=O)(=O)c1ccc2c(c1)N(Cc1cnn(CC=C)c1)CC1(CCCc3cc(Cl)ccc31)CO2` (stereo not shown) [Example 10, N-[5-[(1-Allylpyrazol-4-yl)methyl]-6′-chloro-spiro[2,4-dihydro-1,5-benzoxazepine-3,1′-tetralin]-7-yl]sulfonylhex-5-enamide], the Ki on MCL-1 (numeric values) came to 1430 nM. Besides, the half-inhibitory concentration (IC50) with H929 cells is greater than 1000 nM.

`CN(C(=O)O[C@H]1/C=C/COC(C)(C)C(=O)NS(=O)(=O)c2ccc3c(c2)N(C[C@@H]2CC[C@H]21)C[C@@]1(CCCc2cc(Cl)ccc21)CO3)[C@@H]1CCOC1` [Example 64, [(3R,6R,7S,8E,22S)-6′-Chloro-12,12-dimethyl-13,15,15-trioxo-spiro[11,20-dioxa-15-thia-1,14-diazatetracyclo[14.7.2.03,6.019,24]pentacosa-8,16,18,24-tetraene-22,1′-tetralin]-7-yl] N-methyl-N-[(3R)-tetrahydrofuran-3-yl]carbamate]: the Ki at MCL-1 (class symbols) is less than 1 nM. Further, in the test on H929 cells, the IC50 is less than 500 nM.

As to `COC(=O)N1C/C=C/[C@@H](OC)[C@@H]2CC[C@H]2CN2C[C@@]3(CCCc4cc(Cl)ccc43)COc3ccc(cc32)S(=O)(=O)NC(=O)C2(CCC2)C1` [Example 67, (3R,6R,7R,8E,23S)-6′-Chloro-7-methoxy-11-methoxycarbonyl-13,13-(1,3-propylene)-16,16-dioxo-spiro[21-oxa-16-thia-1,11,15-triazatetracyclo[15.7.2.03,6.020,25]hexacosa[8,17(26),18,20(25)]tetraene-23,1′-tetralin]-14-one], the Ki on MCL-1 (class symbols) lay within 1 to 100 nM. Also, the IC50 in the test with H929 cells was greater than 1000 nM.

With `CN1C/C=C/[C@H](OCCN2CCCCC2)[C@@H]2CC[C@H]2CN2C[C@@]3(CCCc4cc(Cl)ccc43)COc3ccc(cc32)S(=O)(=O)NC(=O)C1(C)C` [Example 289, (3R,6R,7S,8E,22S)-6′-Chloro-11,12,12-trimethyl-15,15-dioxo-7-[2-(1-piperidyl)ethoxy]spiro[20-oxa-15-thia-1,11,14-triazatetracyclo[14.7.2.03,6.019,24]pentacosa-8,16,18,24-tetraene-22,1′-tetralin]-13-one], on MCL-1 (class symbols), the Ki lay within 1 to 100 nM. For the same compound, the IC50 in the test on H929 cells was greater than 1000 nM.

For the compound `O=C(Cc1ccncc1)NS(=O)(=O)c1ccc2c(c1)N(CC1CCC1)C[C@@]1(CCCc3cc(Cl)ccc31)CO2` [Example 19, 2-Pyridin-4-yl-N-[(3S)-6′-chloro-5-(cyclobutylmethyl)spiro[2,4-dihydro-1,5-benzoxazepine-3,1′-tetralin]-7-yl]sulfonyl-acetamide], at MCL-1 (numeric values), the Ki worked out at 9.3 nM. Besides, the IC50 in the test with H929 cells is greater than 1000 nM.

With `COCCN1CCCN(C(=O)O[C@H]2/C=C/COC(C)(C)C(=O)NS(=O)(=O)c3ccc4c(c3)N(C[C@@H]3CC[C@H]32)C[C@@]2(CCCc3cc(Cl)ccc32)CO4)CC1` [Example 60, [(3R,6R,7S,8E,22S)-6′-Chloro-12,12-dimethyl-13,15,15-trioxo-spiro[11,20-dioxa-15-thia-1,14-diazatetracyclo[14.7.2.03,6.019,24]pentacosa-8,16,18,24-tetraene-22,1′-tetralin]-7-yl] 4-(2-methoxyethyl)-1,4-diazepane-1-carboxylate], the Ki on MCL-1 (class symbols) is less than 1 nM. In the test with H929 cells, the IC50 is less than 500 nM.

In general, IC50 refers to the concentration needed to halve the response being measured.
